Experimental data: ChEMBL document CHEMBL3988442, “University of Dundee, Small-Polar-MMV Screening Library” (2021)
Values joined by “and” are separate entries in the source; they are usually repeats but may differ in a detail not shown here. Identical values can stand only once.

Experiments:
Leishmania donovani = experiment: Leishmania intramacrophage assay; type: functional, organism-based; conditions: for IC50: Leishmania donovani
Histidine--tRNA ligase = target: T1, Histidine--tRNA ligase (Leishmania infantum, UniProt A4I591); experiment: Leishmania infantum Histidine tRNA synthetase (LdHisRS); type: functional
T1 sequence (A4I591 whole entry): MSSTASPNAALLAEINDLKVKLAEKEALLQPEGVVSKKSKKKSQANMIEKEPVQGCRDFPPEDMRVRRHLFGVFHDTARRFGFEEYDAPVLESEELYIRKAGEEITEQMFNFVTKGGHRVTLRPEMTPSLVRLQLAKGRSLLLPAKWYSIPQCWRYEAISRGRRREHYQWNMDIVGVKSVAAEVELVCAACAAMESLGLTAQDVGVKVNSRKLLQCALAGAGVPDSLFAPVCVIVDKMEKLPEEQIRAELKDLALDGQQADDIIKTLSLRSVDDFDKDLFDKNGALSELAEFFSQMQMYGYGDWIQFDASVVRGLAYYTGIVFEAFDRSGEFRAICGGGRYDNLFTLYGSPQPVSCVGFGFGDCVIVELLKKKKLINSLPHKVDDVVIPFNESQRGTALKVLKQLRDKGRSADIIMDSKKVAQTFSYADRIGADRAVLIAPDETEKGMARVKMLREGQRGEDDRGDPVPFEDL

Plasmodium falciparum = experiment: Calibr Malaria Delayed Death Assay SOP; type: functional, organism-based; conditions: for IC50: Plasmodium falciparum
[1] = In vitro enzyme assay to detect hydrolysis of chlorophenol red-beta-D-[…] directly proportional to the number of Toxoplasma stably expressing beta-galactosidase; type: functional, organism-based, Toxoplasma gondii; conditions: for IC50: Toxoplasma gondii
[2] = microbe, parasite or virus in culture; conditions: Mycobacterium tuberculosis, 72 h, read-out: pIC50 (converted)
[3] = microbe, parasite or virus in culture; conditions: Mycobacterium tuberculosis, 96 h, read-out: pIC50 (converted)
Tryptophan--tRNA ligase = Tryptophan--tRNA ligase (Mycobacterium tuberculosis (strain ATCC 25618 / H37Rv), UniProt P9WFT3); experiment: Biochemical assay for Mt-TrpRS; type: functional
ClpP1P2 = ClpP1P2 (Mycobacterium tuberculosis (strain ATCC 25618 / H37Rv), UniProt P9WPC3+P9WPC5); experiment: in vitro assay to detect presence of AMC directly proportional to the activity of ClpP1P2. GHDDI collaboration.; type: functional
Schistosoma mansoni = experiment: High throughput screening of compounds against Schistosoma mansoni motility; type: functional; set-up: dose or concentration left out as unconfirmed

CCOCCN1CCN(CC(O)c2ccc(OC)cc2)CC1 (stereo unspecified)
IC50 (Leishmania donovani): > 50.1 µM

CN(CC1CC1)c1ccc2ccc(C(=O)NC3CCCCC3)cn12
IC50 (Leishmania donovani): > 50.1 µM

O=C(c1cnccn1)N1CCC(F)(F)C2(CCN(c3ccccn3)C2)C1 (stereo unspecified)
IC50 (Leishmania donovani): > 50.1 µM

Clc1ccccc1-c1cc(CNc2ncnc3c2CCNCC3)no1
pIC50 (Leishmania donovani): 4.821
IC50 (Leishmania donovani): 12 µM

CN1CCN(c2ccc3ccc(C(=O)N4CCCO4)cn23)CC1
IC50 (Leishmania donovani): > 50.1 µM

Cc1sc2nc(CCN)nc(N3CC(N4CCCCC4)C3)c2c1C
IC50 (Leishmania donovani): 23.7 µM

CO[C@H]1[C@@H]2CC[C@H]1CN(c1nc(C)nc3sccc13)C2
IC50 (Leishmania donovani): > 50.1 µM

COc1ccc(CNC(=O)C2=NN(c3ccc(C)cc3)C(=O)CN2)cc1
IC50 (Leishmania donovani): > 50.1 µM

COCC(=O)Nc1ccnn1-c1ccc(Cl)cc1
pIC50 (Leishmania donovani): 4.861
IC50 (Leishmania donovani): 13.5 µM

O=C(O)CN1CCC(F)(F)C2(CCN(c3ccccn3)C2)C1 (stereo unspecified)
IC50 (Leishmania donovani): > 50.1 µM

COCCNc1nc(C2CCCC2)nc2c1CCNCC2
pIC50 (Leishmania donovani): 4.615
IC50 (Leishmania donovani): 17.4 µM

Cc1sc2nc(CCN)nc(N(CCN(C)C)CC3CCCO3)c2c1C (stereo unspecified)
IC50 (Leishmania donovani): > 50.1 µM

Cc1nnc(NCC2(c3ccccc3)CCOCC2)c(C#N)c1C
IC50 (Leishmania donovani): > 50.1 µM

FC1(F)CCN(Cc2ccncc2)CC12CCN(c1cccnc1)C2 (stereo unspecified)
IC50 (Leishmania donovani): > 50.1 µM

c1ccc2sc(N3CCCN(c4ncnc5c4CCNC5)CC3)nc2c1
IC50 (Histidine--tRNA ligase): 76.9 µM and 73.9 µM
pIC50 (Plasmodium falciparum): 5.791
IC50 (Plasmodium falciparum): 1.56 µM

COc1ccc(NC(=O)Cn2nc(C)c(C(C)=O)c2C)cc1
IC50 [1]: 3.61 µM
IC50 [2]: 22.1 µM
IC50 [3]: 19 µM
IC50 (Histidine--tRNA ligase): 17.2 µM and 14 µM
pIC50 (Plasmodium falciparum): 6.455
IC50 (Plasmodium falciparum): 0.421 µM

CCCC(O)CNc1cncc(Br)c1 (stereo unspecified)
IC50 [2]: > 50.1 µM
IC50 [3]: 21.7 µM
IC50 (Tryptophan--tRNA ligase): > 195 µM
IC50 (Histidine--tRNA ligase): > 100 µM

CCN1c2ccc(-c3cncn3CCCn3ccnc3C)cc2CC1C.Cl (stereo unspecified)
IC50 [2]: 42.9 µM
IC50 [3]: 46.6 µM
IC50 (ClpP1P2): > 100 µM
IC50 (Histidine--tRNA ligase): 39.6 µM and 37.5 µM

CCC[C@@H]1CN(C(=O)c2cc3ccccc3cc2O)C[C@H]1N(C)C
IC50 (ClpP1P2): > 100 µM
IC50 (Histidine--tRNA ligase): 38 µM and 45 µM

Cc1cc(C)n(CC(=O)N2C[C@@H]3CC[C@H](C2)N(CC2CCC2)C3)c(=O)n1
IC50 (ClpP1P2): > 100 µM
IC50 (Histidine--tRNA ligase): 16.8 µM and 12 µM

c1cncc(-c2ccc3c(c2)CCC32CCN(Cc3nccs3)CC2)c1
IC50 [2]: 36.1 µM
IC50 [3]: 36.3 µM
IC50 (Histidine--tRNA ligase): 75.2 µM and 52.4 µM

COc1ccccc1C1(CNCc2cccc(O)c2)CCOCC1
IC50 (Histidine--tRNA ligase): 1.13 µM and 1.34 µM (2×) and 1.43 µM
pIC50 (Plasmodium falciparum): 6.352
IC50 (Plasmodium falciparum): 0.31 µM

O=C(Cn1c(-c2ccco2)cc2cccnc21)N1CCCC1
IC50 (ClpP1P2): > 100 µM
IC50 (Histidine--tRNA ligase): 21.5 µM and 27.9 µM

Cn1cc(-c2c(C#N)c(N)nc3c2CCc2[nH]ccc2-3)cn1
IC50 (ClpP1P2): > 100 µM
IC50 (Histidine--tRNA ligase): 11.2 µM and 16.9 µM

c1ccc(Oc2cccc(OC34CCCN(CC3)C4)c2)cc1 (stereo unspecified)
IC50 [2]: 18.1 µM
IC50 [3]: 15.9 µM
IC50 (Histidine--tRNA ligase): 53.2 µM and 46.4 µM

CCn1nc2c(cc1=O)CN(c1ncnc3ccsc13)CC2
IC50 [1]: 11.2 µM
IC50 (Histidine--tRNA ligase): 54.3 µM and 39.8 µM

COc1ccccc1C1(CNCc2cccc(C#N)c2)CCOCC1
IC50 (Histidine--tRNA ligase): 70.8 µM and 65.6 µM
pIC50 (Plasmodium falciparum): 5.883
IC50 (Plasmodium falciparum): 1.49 µM

Cc1cnc2n(c1=O)CC(C(=O)Nc1cccc3cccnc13)CS2 (stereo unspecified)
IC50 (Histidine--tRNA ligase): 78.6 µM and 68.6 µM
Percent Effect (Schistosoma mansoni): -85.49%

CCCN1C[C@H]2CC[C@@H]1CN(Cc1ccc(-n3cccn3)cc1)C2
IC50 [2]: 4.84 µM
IC50 [3]: 21.4 µM
IC50 (Histidine--tRNA ligase): 33.2 µM and 35 µM

Cc1[nH]/c(=N\C(=O)c2csc(NC3CCCC3)n2)sc1C
pIC50 [1]: 5.387
IC50 [1]: 3.16 µM
IC50 [2]: 19.8 µM
IC50 [3]: > 50.1 µM
IC50 (Histidine--tRNA ligase): 18 µM and 18.2 µM
